US11000535B2, “Anticancer composition and use thereof” (KAOHSIUNG MEDICAL UNIVERSITY, priority 2015, dated 2021)
Read-outs that look alike come from different tables or passages of the source. Residues, ends and D or L forms follow the SMILES beside them. *: point of attachment. Cbz = O=C(OCc1ccccc1)*; CH2F = FC*

Experiments:
c-Myc protein = test: Protein degradation inhibitors on PGG-induced c-Myc degradation; format: cell-based, human; conditions: co-treatment with PGG, Huh7 cells, FIG. 45
[1] = system: human glycine N-methyltransferase promoter; test: GNMT promoter-driven luciferase reporter assay in H7GPL cells; format: cell-based; conditions: for fold induction at 10 µM: Homo sapiens, H7GPL, read-out: Fold change (10 uM)
Description: Please refer to FIG. 1, which illustrates the configuration of pLV-GNMTpLuc plasmid. HEK293T cells were cotransfected with a packaging plasmid-pCMV-ΔR8.91, a VSV-G envelope expressing plasmid-pMD.G and pLV-GNMTpLuc using TurboFect™ Reagent (Fermentas, Hanover, Md.). One resultant colony was picked, amplified and denominated as H7GPL (HuH-7-GNMT promoter-Luciferase). The relative luciferase activity (RLA) was calculated as “activity of luciferase/intensity of alamarBlue fluorescence”. The fold changes in GNMT promoter induction was calculated as “RLA of drug/RLA of solvent control”. Compounds with the ability to activate human glycine N-methyltransferase promoter in H7GPL could serve as a citeria for screening drugs.
Please refer to FIG. 2, which illustrates the luciferase activity in a screening platform. Previously, 26 FDA approved drugs were identified that can reverse the gene expression signature of HCC. We obtained 26 drugs. H7GPL cells were seeded in 96-well plates for 18 hours and then were treated with these 26 drugs and solvent control for an extra 24 hours.
In the initial screening, when (individual luciferase activity−average luciferase activity of all hits)/standardized Z scores of all samples is greater than 1.5, it means the compound has the capability of enhancing the GNMT reporter activity.
Huh7 cells were infected with this virus and selected with puromycin-containing medium. One resultant colony was picked, amplified and denominated as H7GPL (Huh7 GNMT promoter-luciferase). The cell lysate of H7GPL was used for luciferase activity measurement using the Luciferase Assay System (Promega).
For primary screening, H7GPL cells seeded in 96-well plates were treated for 24 h with individual drugs at a concentration of 2 mg/mL for crude extracts and 0.2 mg/mL for pure compounds and then were lysed for the luciferase activity assay using the Luciferase Assay System (Promega, Madison, Wis., USA).
Reporter activity for each well was transformed to the Z score by using data from all assay plates.
Then, hits of primary screening were sorted by Z score ≥1.5 and used for secondary screening.
And then placed in the above-described culture plate H7GPL cell replication, and after the disposal of seized goods in those 20 hours, the company added AbD serotec Reagent (Oxford, UK), further cultured for 4 hours.
The cytotoxicity was measured according to the manufacturer's recommendation for assessing the reporter gene.
Drugs that induced GNMT promoter activity ≥1.5-fold were considered as hits of the secondary screen with the capability of enhancing the activity of GNMT.

Huh7-GNMT cells = test: Sorafenib cell viability in Huh7-GFP and Huh7-GNMT cells; format: cell-based, human; conditions: 2.5 μM sorafenib
Description: The cell viability is determined after Huh7-GFP cells capable of expressing Green fluorescent protein (GFP) and Huh7-GNMT cells are treated with an increased concentration of sorafenib.
Please refer to FIG. 26, which illustrates the effect of sorafenib on cell proliferation, wherein numerals 1 and 2 denote Huh7-GFP cells and Huh7-GNMT respectively.
Stablized cells comprises Huh7-GFP, Huh7-GNMT, Huh7-shGNMT, Huh7-shLacZ and Huh7-shMyc, which are established via the lentivirus system and cultured in Dulbecco's Modified Eagle's Medium (DMEM) (Gibco BRL, Grand Island, N.Y., USA) with 1 μg/ml puromycin.

[2] = system: Huh7-GFP and Huh7-GNMT transfected cells; test: Sorafenib in Huh7-GFP / Huh7-GNMT xenograft; format: in vivo, NOD-SCID mice
Description: To assess the effect of additional GNMT to administering sorafenib, female nonobese diabetic/severe combined immunodeficiency (NOD-SCID) mice lacking thymus gland were subcutaneously injected with […] or Huh7-GFP cells. The mice were randomly grouped and treated with a sorafenib or a physiological saline. Overexpression of GNMT inhibits cancer cell proliferation compared to the tumor due to Huh7-GFP cells.
Please refer to FIG. 27, which illustrates that the tumor cells are treated with the compound of sorafenib, wherein the numeral 1 is for Huh7-GFP transfected cells administered with a physiological saline, the numeral 2 is for Huh7-GNMT transfected cells administered with a physiological saline, the numeral 3 is for Huh7-GFP transfected cells administered with 10 mg/kg sorafenib and the numeral 4 is for Huh7-GNMT transfected cells administered with 10 mg/kg sorafenib. […] Based on the above results, a survey for the effect of PGG combined with sorafenib as a combination therapy to liver cancer was conducted. […]
(§1) Tumor growth was monitored (every day or three times per week) by using Vernier caliper measurement of the length (L) and width (W) of the tumor.
(§2) Tumor volume (TV) was calculated by using the formula volume=(L×W^2)/2.

Huh7 cells = test: Combination treatment, Huh7 xenograft tumor volume; format: in vivo, NOD-SCID mice; conditions: sorafenib 10 mpk; F3-6 25 mpk or 300 mpk
Description: Please refer to FIG. 29, which illustrates the tumor volume, wherein the numeral 1 is for a physiological saline solution, the numeral 2 is for F3-6 (25 mg/kg (mpk)), the numeral 3 is for F3-6 (300 mpk), the numeral 4 is for sorafenib (10 mpk), the numeral 5 is for F3-6 (25 mpk) with sorafenib (10 mpk), and the numeral 6 is for PGG (25 mpk) with sorafenib (10 mpk).
To assess the combinatory effect of drugs, female nonobese diabetic/severe combined immunodeficiency (NOD-SCID) mice lacking thymus gland were injected with Huh7 cells (2×10^6).
Mice are administered F3-6 (25 mpk), F3-6 (300 mpk) or PGG (25 mpk) three times per week, and sorafenib (10 mpk) twice per week alone or combined with F3-6 or PGG as illustrated in FIG. 29.
as §1, §2

[3] = GNMT promoter induction, RLA of drug/RLA of solvent control, 10 uM, 24 hours

COC(=O)C[C@H](NC(=O)[C@H](C)NC(=O)[C@@H](NC(=O)OCc1ccccc1)C(C)C)C(=O)CF [Z-VAD-FMK, N-Benzyloxycarbonyl-Val-Ala-Asp (Ome)fluoromethyl ketone] (Cbz-Val-Ala-Asp(OMe)-CH2F)
prevention of PGG-induced c-Myc degradation / inhibition of c-Myc protein expression (c-Myc protein): can prevent

Oc1c(I)cc(Cl)c2cccnc12 [clioquinol(quinoinol), clioquinol]
GNMT promoter activity (in words) ([1]; H7GPL luciferase): remarkably induced GNMT promoter activity | fold induction at 10 µM [1, 3]: 3.8

CN(C)CCCN1c2ccccc2Sc2ccc(Cl)cc21 [Chlorpromazine]
fold induction at 10 µM [1, 3]: 0.7

Tyloxapol
Fold change (10 uM) [1, 3]: 0.6

Clc1ccc(CSC(Cn2ccnc2)c2ccc(Cl)cc2Cl)cc1 (stereo not drawn) [Sulconazole]
fold induction at 10 µM [1, 3]: 0.5

Cc1cc(/C=C/c2ccc3cc(N(C)C)ccc3[n+]2C)c(C)n1-c1ccccc1 [Pyrvinium]
fold induction at 10 µM [1, 3]: 0.5

CN1CCN(CCCN2c3ccccc3Sc3ccc(Cl)cc32)CC1 [Prochlorperazine]
fold induction at 10 µM [1, 3]: 0.7

CC(/C=C/C(=O)NO)=C\[C@@H](C)C(=O)c1ccc(N(C)C)cc1 [trichostatin A]
Fold change (0.2 uM) ([1]; GNMT promoter induction, 0.2 uM, 24 hours): 3.4 with Fold | GNMT promoter activity (in words) ([1]; H7GPL luciferase): remarkably induced GNMT promoter activity

Cc1cc2cc3c(C)cc(=O)oc3c(C)c2o1 [Trioxysalen]
fold induction at 10 µM ([1]; 24 h): 1.2

C[n+]1cc2c3c(ccc2c2ccc4cc5c(cc4c21)OCO5)OCO3 [Sanguinarine]
fold induction at 10 µM ([1]; 24 h): 0.1

CNC(=O)c1cc(Oc2ccc(NC(=O)Nc3ccc(Cl)c(C(F)(F)F)c3)cc2)ccn1 [sorafenib, 4-[4-[[4-chloro-3-(trifluoromethyl)phenyl]carbamoylamino]phenoxy]-N-methyl-pyridine-2-carbox-amide]
viability of GNMT stable cells compared to GFP control cells (Huh7-GNMT cells): decreased significantly | size of the tumor, Huh7-GNMT transfected cells, compared with other groups ([2]; 10 mg/kg): reducing the size of the tumor is statistically significant | tumor growth ([2]; oral 10 mpk, three days a week): significantly inhibits tumor growth | tumor growth, single drug (Huh7 cells): effective in inhibiting the tumor growth

OC(c1cc(C(F)(F)F)nc2c(C(F)(F)F)cccc12)C1CCCCN1 (stereo not drawn) [Mefloquine]
fold induction at 10 µM [1, 3]: 0.3

Clc1ccc(C(OCCN2CCCCC2)c2ccccc2)cc1 (stereo not drawn) [Cloperastine]
fold induction at 10 µM ([1]; 24 h): 1

O=C(O)c1cc(O)c(O)c(O)c1 [gallic acid]
GNMT promoter activity (in words) ([1]; H7GPL luciferase): none of which can either affect the activity of GNMT promoter

C=CCNC1=C2C[C@@H](C)C[C@H](OC)[C@H](O)[C@@H](C)/C=C(\C)[C@H](OC(N)=O)[C@@H](OC)/C=C\C=C(/C)C(=O)NC(=CC1=O)C2=O [Tanespimycin]
fold induction at 10 µM [1, 3]: 0.5

COC(=O)Nc1nc2ccc(C(=O)c3ccccc3)cc2[nH]1 [Mebendazole]
fold induction at 10 µM [1, 3]: 1

O=C(O)CN(CCN(CC(=O)O)CC(=O)O)CC(=O)O [EDTA, ethylenediamine-tetraacetic acid]
prevention of PGG-induced c-Myc degradation / inhibition of c-Myc protein expression (c-Myc protein): can not prevent

O=C(CCCCCCC(=O)Nc1ccccc1)NO [suberoylanilide hydroxamic acid]
GNMT promoter activity (in words) ([1]; H7GPL luciferase): remarkably induced GNMT promoter activity | dose dependence of GNMT promoter activity ([1]; H7GPL luciferase): dose-dependently | GNMT promoter activity (in words) ([1]; H7GPL luciferase, listed as SAHA): potent GNMT inducer | fold induction at 10 µM ([1]; 24 h): 18.6

CN1CCN(CCCN2c3ccccc3Sc3ccc(C(F)(F)F)cc32)CC1 [Trifluoperazine]
fold induction at 10 µM [1, 3]: 0.1

CC(C)C[C@@H](C=O)NC(=O)[C@H](CC(C)C)NC(=O)[C@H](CC(C)C)NC(=O)OCc1ccccc1 [MG132, Z-LEU-LEU-LEU-CHO] (Cbz-Leu-Leu-Leu-aldehyde)
prevention of PGG-induced c-Myc degradation / inhibition of c-Myc protein expression (c-Myc protein): can not prevent

OCCN(CCO)c1nc(N2CCCCC2)c2nc(N(CCO)CCO)nc(N3CCCCC3)c2n1 [Dipyridamole]
fold induction at 10 µM [1, 3]: 0.9

COc1ccccc1N1CCN(CCCCNC(=O)c2ccc3ccccc3c2)CC1.Cl.Cl [DO 897/99]
Fold change (10 uM) [1, 3]: 0.9

CC(COc1ccccc1)N(CCCl)Cc1ccccc1 (stereo not drawn) [Phenoxybenzamine]
fold induction at 10 µM ([1]; 24 h): 0.7

O=C1Nc2ccc3ncsc3c2/C1=C/Nc1ccc(S(=O)(=O)Nc2ccccn2)cc1 [GW-8510]
Fold change (10 uM) [1, 3]: 0.4

O=c1cc(-c2ccc(O)cc2)oc2cc(O)cc(O)c12 [Apigenin]
GNMT promoter activity (in words) ([1]; H7GPL luciferase): remarkably induced GNMT promoter activity | fold induction at 10 µM [1, 3]: 1.8

CSc1ccc2c(c1)N(CCC1CCCCN1C)c1ccccc1S2 (stereo not drawn) [Thioridazine]
fold induction at 10 µM [1, 3]: 0.1

Cc1cc(C2CCCCC2)n(O)c(=O)c1 [Ciclopirox]
GNMT promoter activity (in words) ([1]; H7GPL luciferase): remarkably induced GNMT promoter activity | fold induction at 10 µM [1, 3]: 8.2

CCN(CC)CCCC(C)Nc1ccnc2cc(Cl)ccc12 (stereo not drawn) [chloroquine diphosphate]
prevention of PGG-induced c-Myc degradation / inhibition of c-Myc protein expression (c-Myc protein): can not prevent

CCCC[C@@H](C=O)NC(=O)[C@H](CC(C)C)NC(=O)OCc1ccccc1 [calpeptin, N-Benzyloxy-carbonyl-L-leucyl-L-norleucinal]
prevention of PGG-induced c-Myc degradation / inhibition of c-Myc protein expression (c-Myc protein): can not prevent

CC(C)COCC(CN(Cc1ccccc1)c1ccccc1)N1CCCC1 (stereo not drawn) [Bepridil]
fold induction at 10 µM [1, 3]: 0.7

CC[C@@]1(O)C(=O)OCc2c1cc1n(c2=O)Cc2cc3ccccc3nc2-1 [Camptothecin]
fold induction at 10 µM [1, 3]: 0.4

O=c1cc(-c2ccc(O)c(O)c2)oc2cc(O)cc(O)c12 [Luteolin]
GNMT promoter activity (in words) ([1]; H7GPL luciferase): remarkably induced GNMT promoter activity | fold induction at 10 µM [1, 3]: 1.9

CC1=C(CO)C(=O)O[C@@H]([C@@H](C)[C@H]2CC[C@H]3[C@@H]4C[C@H]5O[C@]56[C@@H](O)C=CC(=O)[C@]6(C)[C@H]4CC[C@]23C)C1 [withaferin A]
Fold change (10 uM) [1, 3]: 0

Cl.N [NH4Cl]
prevention of PGG-induced c-Myc degradation / inhibition of c-Myc protein expression (c-Myc protein): can not prevent
